We go through 3 compounds from EP0503203A1, “Novel thrombin inhibitors” (MERRELL DOW PHARMACEUTICALS INC., priority 1991, dated 1992).

SMILES strings stand for the structures.

Broadly, the kon is a measure of how fast the partners come together. Read a low kon as slow association.

The subject of assay [1] is human plasma. In words: Anticoagulant effect in human plasma, activated partial thromboplastin time (aPTT). The class given is biochemical. From the text: (§1) Anticoagulant data may be represented as follows:
The subject of assay [2] is human plasma. In words: Anticoagulant effect in human plasma, thrombin time (TT). The class given is biochemical.
Source text: as §1

In a further assay the test system is HUMAN LUNG TRYPTASE
Description: Inhibition of tryptase, progress curve analysis. The class given is biochemical. The note with it: non-linear regression (ENZFITTER). From the text:
Using standard in vitro methodology for determining inhibitory activity of tryptase (Journal of Biological Chemistry, Vol. 261, June 5, pp. 7372-7379, 1986), the following results have been obtained.

In a further assay the test system is rats. Description: FeCl₃-induced thrombosis model in rats. The class given is in vivo. The conditions noted are these: intravenously 10 mg/kg of body weight injection, followed by continuous 1 mg/kg/minute infusion, 4 rats. The source says:
In vivo anti-thrombotic effects in rats may also be utilized for evaluation. […] Of course, actual dosage and frequency will vary dependent upon the nature and severity of the condition, age, general health conditions and such other factors well known and appreciated by the skilled attending diagnostician.

Take `CN[C@H](Cc1ccccc1)C(=O)N1CCC[C@H]1C(=O)NC(CCCNC(=N)N)C(=O)C(F)(F)F` (stereo partly drawn) [D-CH₃Phe-Pro-Arg-CF₃, N-Methyl-D-phenylalanyl-N[4-(aminoiminomethyl)amino-1-(trifluoroacetyl)butyl]-L-proline amide]: the “ID₂ aPTT (amount required for doubling the clotting time)” value (“ID₂ aPTT” below) in the assay on human plasma [1] was 218 µM. The “ID₂ TT (amount required for doubling the clotting time)” value (from here on “ID₂ TT”) in the assay with human plasma [2] stood at 108 µM. In the assay with HUMAN LUNG TRYPTASE, this compound came in with a kon of 200 ± 10 M⁻¹ s⁻¹.

As to `N=C(N)NCCCC(NC(=O)[C@@H]1CCCN1C(=O)[C@H](N)Cc1ccccc1)C(=O)C(F)(F)C(F)(F)F` (stereo partly drawn) [D-Phe-Pro-Arg-CF₂CF₃, D-phenylalanyl-N-[4-(aminoiminomethyl)amino]-1-(pentafluoropropionylbutyl]-L-prolineamide, 1.5 HF, O.5 CH₃CO₂H, 3H₂O], the “ID₂ aPTT” value in the assay on human plasma [1] is reported as 2 µM. In addition, in the assay on human plasma [2], the “ID₂ TT” value came to 1 µM. Moreover, the occlusion entry with rats was “preventing occlusion in two rats and prolonging occlusion in the other 2 of the 4 rats”. Also, the kon in the assay on HUMAN LUNG TRYPTASE came to 1200 ± 40 M⁻¹ s⁻¹.

Take `N=C(N)NCCCC(NC(=O)[C@@H]1CCCN1C(=O)[C@H](N)Cc1ccccc1)C(=O)C(F)(F)F` (stereo partly drawn) [D-Phe-Pro-Arg-CF₃]: the “ID₂ aPTT” value in the assay on human plasma [1] is 148 µM. Besides, the “ID₂ TT” value with human plasma [2] is given as 43 µM. The same compound showed a kon with HUMAN LUNG TRYPTASE of 370 ± 40 M⁻¹ s⁻¹.
